Legend:
SOCE, Orai1 and STIM1 = conditions: ref [49]; cited from earlier work
SOCE in CF neutrophils = conditions: in vitro CFTR potentiation; ref [12]; cited from earlier work
Source text: We have previously reported that Ca^2+ signaling is influenced by estrogen in pwCF airways. […] Circulating neutrophil levels fluctuate during the menstrual cycle and sex-specific differences in neutrophil function have previously been described. It may have been that all our female participants had low circulating estrogen levels at time of sample, or that SOCE in neutrophils is less-estrogen sensitive than SOCE in airway epithelia. Importantly, most CF participants were taking CFTR modu ...

CF neutrophils = conditions: ex vivo treatment; ref [12]; cited from earlier work
Source text: Since SPLUNC1 is rapidly degraded ...

[1] = system: inositol monophosphatase 2 (printed IMAP2); conditions: no reference printed with the statement; cited from earlier work
Source text: Increased SOCE has previously been described in CF neutrophils and may be causal for CF neutrophil hyperactivity. However, Orai1’s involvement in SOCE in neutrophils has not been extensively studied, and the impact of CFTR modulator therapies on Orai1/SOCE is not well-understood. To globally assess the impact of ETI on CF neutrophils, we first performed a proteomic analysis. This analysis identified multiple proteins that were differentially expressed in CF-derived neutrophils relative to neutrophils from non-CF participants, even though the majority of pwCF in this part of the study ha ...

[2] = system: SOCE/Orai1 in non-CF peripheral blood neutrophils; test: Fluo-4 Ca2+ assay, global thapsigargin-stimulated Ca2+ response (SOCE), non-CF neutrophils; type: cell-based, human; conditions: 1 μM thapsigargin
Protocol: (§1) Neutrophils were immediately isolated by negative selection from deidentified blood samples using an EasySep human neutrophil isolation kit (Stem Cell Technologies) as described. Cytosolic Ca^2+ was measured using Fluo-4 as described. Protein lysate from isolated blood neutrophils was characterized by liquid chromatography with tandem mass spectrometry (LC-MS/MS) as described. Degranulation products in media were quantified by Luminex assay using a custom Bio-Plex human kit (BioRad) per the manufacturer’s protocol […]. Detailed methods for all experiments and measurements are provided in an online data supplement.
(§2) Isolated neutrophils were incubated with peptide or vehicle control for 3 h. For the final hour of treatment, cells were loaded with Fluo-4 direct (Thermofisher) for 45 min at 37°C and 15 min at room temperature as described.
(§3) Fluo-4 Ca^2+ assays. Isolated neutrophils were incubated with peptide or vehicle control for 3 h. For the final hour of treatment, cells were loaded with Fluo-4 direct (Thermofisher) for 45 min at 37°C and 15 min at room temperature. For global Ca^2+ measurements, baseline fluorescent readings were made for 2 min (1 read every 30 s) using a Tecan Infinite M1000 plate reader (ex 494 em 516 nm, bandwidth 5 nm) before thapsigargin (Sigma-Aldrich) was added and the change in emission was recorded for 10 min (1 read every 30 s). To isolate phases of store operated Ca^2+ entry, cells underwent 3 rounds of centrifugation and resuspension in Ca^2+-free Ringer’s solution to remove extracellular Ca^2+. Baseline fluo-4 fluorescence was read for 2 min before cell were stimulated with thapsigargin (Tocris). Reads continued for ~5 min before 1.2 mM Ca^2+ was added to the extracellular solution and SOCE was measured for ~10 mins. For analysis, all fluo-4 fluorescence reads are normalized to baseline.

[3] = system: SOCE/Orai1 in CF peripheral blood neutrophils; test: Fluo-4 Ca2+ assay, global thapsigargin-stimulated Ca2+ response (SOCE), CF neutrophils; type: cell-based, human; conditions: CF, 1 μM thapsigargin
Protocol: as §1, §2, §3

[4] = system: Ca2+ influx in non-CF neutrophils; test: Fluo-4 Ca2+ influx across the plasma membrane, non-CF neutrophils; type: cell-based, human; conditions: thapsigargin 1 μM, regardless of genotype
Protocol: as §2
(§4) Fig. 3. ELD607 inhibits SOCE in non-CF and CF neutrophils. (A) and (B) Mean changes in fluo-4 fluorescence as a marker of cytoplasmic Ca^2+ levels in non-CF and CF neutrophils respectively before and after stimulation with 1 μM thapsigargin (Tg). Before stimulation, neutrophils were exposed to vehicle (0.1% DMSO in PBS), 10 μM ELD607 or scrambled peptide (control) for 3 h. N = 10 non-CF and 21 CF donors. Stats show ELD607 vs vehicle or scrambled peptide based on color. (C-F) Isolation of ER Ca^2+ release vs Ca^2+ influx across the plasma membrane in non-CF and CF Neutrophils. Neutrophils were stimulated with thapsigargin (1 μM) in the absence of extracellular Ca^2+ to allow the release of Ca^2+ stores to be measured. Extracellular Ca^2+ was then returned so that extracellular Ca^2+ influx could be measured. (C) Mean fold change in Fluo-4 fluorescence during ER store release in non-CF and CF neutrophils. […] (E) Mean fold change in fluo-4 fluorescence during Ca^2+ influx in non-CF and CF neutrophils. […]
(§5) SOCE has 2 phases: release of Ca^2+ from ER stores and Ca^2+ influx from the extracellular space via Ca^2+ channels such as Orai1. […] Once the stores had emptied, extracellular Ca^2+ was reintroduced and Ca^2+ influx was measured (Fig. 3C–F).
(§6) Fluo-4 Ca^2+ assays. […] For global Ca^2+ measurements, baseline fluorescent readings were made for 2 min (1 read every 30 s) using a Tecan Infinite M1000 plate reader (ex 494 em 516 nm, bandwidth 5 nm) before thapsigargin (Sigma-Aldrich) was added and the change in emission was recorded for 10 min (1 read every 30 s). […] Baseline fluo-4 fluorescence was read for 2 min before cell were stimulated with thapsigargin (Tocris). Reads continued for ~5 min before 1.2 mM Ca^2+ was added to the extracellular solution and SOCE was measured for ~10 mins. For analysis, all fluo-4 fluorescence reads are normalized to baseline.

[5] = system: Ca2+ influx in CF neutrophils; test: Fluo-4 Ca2+ influx across the plasma membrane, CF neutrophils; type: cell-based, human; conditions: thapsigargin 1 μM, regardless of genotype
Protocol: as §2, §4, §5, §6

neutrophil elastase = conditions: neutrophil elastase; ref [20]; cited from earlier work

In the case of `NCCOB(c1ccccc1)c1ccccc1` [2-aminoethoxydiphenyl borate], the “inhibition of SOCE, Orai1 and STIM1” value (SOCE, Orai1 and STIM1) is given as “broad spectrum SOCE antagonist that also inhibits Orai1 and STIM1”.

For `CC(C)(C)c1cc(C(C)(C)C)c(NC(=O)c2c[nH]c3ccccc3c2=O)cc1O` [Kalydeco], the “SOCE and bacterial killing of CF neutrophils” value (SOCE in CF neutrophils) is listed as “sufficient to normalize SOCE and CF neutrophil bacterial killing” and the “bacterial killing by CF neutrophils” value (CF neutrophils) is listed as “improved”.

For `[Li]` [lithium], the “effect of IMPA2 inhibition on inositol phosphate” value [1] is given as “cellular accumulation of inositol phosphate”.

In the case of `C/C=C(/C)C(=O)O[C@H]1C(C)=C2[C@H]([C@@H]1OC(=O)CCCCCCC)[C@@](C)(OC(C)=O)C[C@H](OC(=O)CCC)[C@@]1(O)[C@H]2OC(=O)[C@@]1(C)O` [thapsigargin], the “rate of activation (slope) of cytoplasmic Ca2+ response” value ([2]; vs CF p<0.001) is reported as 0.033 ± 0.012, the “rate of activation (slope) of cytoplasmic Ca2+ response” value ([3]; Fluo-4, vs non-CF p<0.001) is reported as 0.085 ± 0.009 and the “increase in cytoplasmic Ca2+ vs non-CF” value ([3]; n = 10 non-CF, 21 CF) is reported as “significantly greater increases in cytoplasmic Ca^2+ than non-CF controls”. The “Ca2+ influx relative to ER Ca2+ release, non-CF” value [4] was ~ 10 fold and the “Ca2+ influx relative to ER Ca2+ release, CF” value [5] was ~ 10 fold.

In the case of “VIRGINDMHVL [scrambled ELD607, scrambled version of ELD607 (negative control peptide)]”, the “inhibition of SOCE (global Ca2+ response)” value ([2]; 10 μM peptide, 3 h pre-treatment, N = 10 donors) is reported as “no effect on SOCE in either group” and the “inhibition of SOCE (global Ca2+ response)” value ([3]; 10 μM peptide, 3 h pre-treatment, Fluo-4, N = 21 donors) is reported as “no effect on SOCE in either group”.

B1: SPLUNC1: short palate lung and nasal epithelial clone 1, endogenous protein (protein, UniProt Q9NP55 20-256, looked up)
BPI fold-containing family A …: QFGGLPVPLDQTLPLNVNPALPLSPTGLAGSLTNALSNGLLSGGLLGILENLPLLDILKPGGGTSGGLLGGLLGKVTSVIPGLNNIIDIKVTDPQLLELGLVQSPDGHRLYVTIPLGIKLQVNTPLVGASLLRLAVKLDITAEILAVRDKQERIHLVLGDCTHSPGSLQISLLDGLGPLPIQGLLDSLTGILNKVLPELVQGNVCPLVNEVLRGLDITLVHDIVNMLIHGLQFVIKV
In the case of B1, the “degradation by neutrophil elastase” value (neutrophil elastase) is given as “rapidly degraded by neutrophil elastase”.

Reference: paper PMC12998938, “Neutrophil store-operated Ca^2+ entry: A correctable biomarker of cystic fibrosis lung disease progression” (Journal of cystic fibrosis : official journal of the …, 2025)
